Measured values: US20100009853A1, “PARASITIC PLANT CONTROL AGENT AND USE THEREOF” (Nihon Nohyaku Co., Ltd, priority 2006, published 2010)
“And” between values parts separate entries of the source, which are not always exact repeats. Equal entries are not always repeated.

How the values were obtained:
Format in all cases: in vivo
[1] = system: Orobanche minor; experiment: Test Example 4: seed soaking treatment, parasitism of Orobanche minor on red clover; conditions: for S4 bud formation per root / Average parasitism frequency per root: seed soaking 24 h; for S4 bud formation per root: untreated plot 0.45; for Average parasitism frequency per root: untreated plot 2.08
Method: Red clover seeds were soaked for 24 hours in agent liquid which had been prepared into a predetermined concentration. The red clover seeds were sowed in a pot packed with soil (1/10000 ares) and Orobanche minor seeds were sowed around the red clover seeds, followed by cultivation in a greenhouse. Growth of the red clover and the parasitism frequency and growth of Orobanche minor were observed by visual observation.

[2] = system: Orobanche minor; experiment: Test Example 6: foliage application treatment, parasitism of Orobanche minor on red clover; conditions: for Average parasitism frequency per root: foliage application at 10, 20 and 30 days after sowing, untreated plot 2.08; for S4 bud formation per root: untreated plot 0.45
Excerpt: (§1) The red clover seeds were sowed in a pot packed with soil (1/10000 ares) and Orobanche minor seeds were sowed around the red clover seeds, followed by cultivation in a greenhouse. After 10, 20 and 30 days of the sowing, sufficient amount of agent liquid diluted to a predetermined concentration with water was applied to the foliage using an atomizer, from single- to double-leaf stage of the red clover.

[3] = system: red clover; experiment: Test Example 5: phytotoxicity of soil irrigation treatment on red clover; conditions: 2000 ppm, symptom growth inhibition
Method: (§2) The red clover seeds were sowed in a pot packed with soil (1/10000 ares) and Orobanche minor seeds were sowed around the red clover seeds, followed by cultivation in a greenhouse. After 10, 20 and 30 days of the sowing, agent liquid prepared into a predetermined concentration was irrigation-treated at a ratio of 20 ml/pot.

[4] = system: Orobanche minor; experiment: Test Example 5: soil irrigation treatment, parasitism of Orobanche minor on red clover; conditions: for Average parasitism frequency per root: soil irrigation 20 ml/pot at 10, 20 and 30 days after sowing, untreated plot 2.08; for S4 bud formation per root: untreated plot 0.45
Method: as §2

[5] = system: Orobanche minor; experiment: Test Example 3: foliage application treatment, parasitism of Orobanche minor on red clover; conditions: for Average parasitism frequency per root: foliage application at 10, 20 and 30 days after sowing, untreated plot 2.55; for S4 bud formation per root / parasitism frequency: foliage application; for S4 bud formation per root: untreated plot 0.52
Excerpt: as §1

[6] = system: Orobanche minor; experiment: Test Example 2: soil irrigation treatment, parasitism of Orobanche minor on red clover; conditions: for Average parasitism frequency per root: soil irrigation 20 ml/pot at 10, 20 and 30 days after sowing, untreated plot 2.55; for S4 bud formation per root: untreated plot 0.52
Method: The red clover seeds were sowed in a pot packed with soil (1/10000 ares) and Orobanche minor seeds were sowed around the red clover seeds, followed by cultivation in a greenhouse. After 10, 20 and 30 days of the sowing, an agent liquid prepared into a predetermined concentration was irrigation-treated at a ratio of 20 ml/pot.

[7] = system: Orobanche minor; experiment: Test Example 1: seed soaking treatment, parasitism of Orobanche minor on red clover; conditions: for Average parasitism frequency per root / S4 bud formation per root: seed soaking 24 h; for Average parasitism frequency per root: red clover host, untreated plot 2.55; for S4 bud formation per root: untreated plot 0.52
Method: Red clover seeds were soaked for 24 hours in agent liquid which had been prepared into a predetermined concentration. The red clover seeds were sowed in a pot packed with soil (1/10000 ares) and Orobanche minor seeds were sowed around the red clover seeds, followed by cultivation in a greenhouse. Growth of the red clover and the parasitism frequency and growth of Orobanche minor were observed by visual observation. The growth of Orobanche minor was evaluated based on the following four steps. [table]

[8] = system: red clover; experiment: Test Example 3: effect of foliage application on the host red clover
Excerpt: as §1

[9] = system: parasitic plant; experiment: Parasitic plant controlling activity (general statement); conditions: general statement in the description
[10] = seed soaking, all treatment plots (200 and 20 ppm)

Question: For `N#Cc1ccccc1NC(=O)c1snc(Cl)c1Cl` [CICA, N-(2-cyanophenyl)-3,4-dichloroisothiazole-5-carboxamide], which “S4 bud formation per root” value ([1]; 20 ppm) is on record?
Answer: 0.11 per root

Question: What about the “Average parasitism frequency per root” value ([1]; 20 ppm) of the same compound?
Answer: 1.36 per root

Question: What about the “S4 bud formation per root” value ([1]; 200 ppm) of the same compound?
Answer: 0.09 per root

Question: And the “Average parasitism frequency per root” value ([1]; 200 ppm)?
Answer: 1.15 per root

Question: What about the S4 bud formation [1, 10] of the same compound?
Answer: decreasing tendency

Question: And the “total parasitism frequency of Orobanche minor” value [1, 10]?
Answer: decreasing tendency

Question: What about the “Average parasitism frequency per root” value ([2]; 20 ppm) of the same compound?
Answer: 3.01 per root

Question: What about the “Average parasitism frequency per root” value ([2]; 200 ppm) of the same compound?
Answer: 2.05 per root

Question: What about the “Average parasitism frequency per root” value ([2]; 2000 ppm) of the same compound?
Answer: 0.44 per root

Question: And the “S4 bud formation per root” value ([2]; foliage application, 20 ppm)?
Answer: 0.60 per root

Question: And the “parasitism frequency decreasing tendency” value ([2]; foliage application, 200 ppm or less)?
Answer: unclear

Question: What about the “S4 bud formation per root” value ([2]; foliage application, 200 ppm) of the same compound?
Answer: 0.25 per root

Question: And the S4 bud formation ([2]; foliage application, 2000 and 200 ppm)?
Answer: decreasing tendency

Question: And the parasitism frequency ([2]; foliage application, 2000 ppm)?
Answer: decreasing tendency

Question: And the “S4 bud formation per root” value ([2]; foliage application, 2000 ppm)?
Answer: 0.03 per root

Question: And the phytotoxicity [3]?
Answer: weak

Question: What about the “Average parasitism frequency per root” value ([4]; 20 ppm) of the same compound?
Answer: 1.99 per root

Question: And the “Average parasitism frequency per root” value ([4]; 200 ppm)?
Answer: 1.39 per root

Question: And the “Average parasitism frequency per root” value ([4]; 2000 ppm)?
Answer: 0.15 per root

Question: And the “S4 bud formation per root” value ([4]; soil irrigation, 20 ppm)?
Answer: 0.10 per root

Question: And the “S4 bud formation per root” value ([4]; soil irrigation, 200 ppm)?
Answer: 0.09 per root

Question: What about the parasitism frequency ([4]; soil irrigation, 2000 and 200 ppm) of the same compound?
Answer: reducing tendency

Question: And the “S4 bud formation per root” value ([4]; soil irrigation, 2000 ppm)?
Answer: 0.04 per root

Question: What about the “S4 bud formation” value ([4]; soil irrigation, all treatment plots) of the same compound?
Answer: reduced

Question: What does the source list for `O=C(O)c1ccnc(Cl)c1` [INA, 2-chloroisonicotinic acid]?
Answer: Average parasitism frequency per root ([5]; 2 ppm): 0.99 per root; Average parasitism frequency per root ([5]; 20 ppm): 0.94 per root; S4 bud formation per root ([5]; 2 ppm): 0.05 per root; S4 bud formation per root ([5]; 20 ppm): 0.03 per root; parasitism frequency ([5]; concentration not given): lowered; Average parasitism frequency per root ([6]; 2 ppm): 1.49 per root; Average parasitism frequency per root ([6]; 20 ppm): 1.03 per root; S4 bud formation per root ([6]; soil irrigation, 2 ppm): 0.07 per root; S4 bud formation per root ([6]; soil irrigation, 20 ppm): 0.08 per root; parasitism frequency ([6]; soil irrigation, 200 ppm): slightly lowered; reduction of the S4 (bud formation) ([7]; seed soaking): large; Average parasitism frequency per root ([7]; 20 ppm): 2.28 per root; S4 bud formation per root ([7]; 20 ppm): 0.22 per root; Average parasitism frequency per root ([7]; 200 ppm): 1.03 per root; S4 bud formation per root ([7]; 200 ppm): 0.02 per root; number of total parasitized cases of Orobanche minor ([7]; seed soaking, 200 ppm): reducing tendency; growth of the host ([8]; 200 ppm treatment plot): inhibited

Question: What does the source list for `C=CCOC1=NS(=O)(=O)c2ccccc21` [PBZ, probenazole]?
Answer: Average parasitism frequency per root ([5]; 20 ppm): 2.24 per root; Average parasitism frequency per root ([5]; 200 ppm): 1.75 per root; S4 bud formation per root ([5]; 20 ppm): 0.16 per root; S4 bud formation per root ([5]; 200 ppm): 0.18 per root; Average parasitism frequency per root ([6]; 2 ppm): 2.47 per root; Average parasitism frequency per root ([6]; 20 ppm): 3.17 per root; Average parasitism frequency per root ([6]; 200 ppm): 1.52 per root; S4 bud formation per root ([6]; soil irrigation, 2 ppm): 0.13 per root; S4 bud formation per root ([6]; soil irrigation, 20 ppm): 0.08 per root; S4 bud formation per root ([6]; soil irrigation, 200 ppm): 0.08 per root; Average parasitism frequency per root ([7]; 20 ppm): 1.50 per root; S4 bud formation per root ([7]; 20 ppm): 0.28 per root; Average parasitism frequency per root ([7]; 200 ppm): 1.59 per root; S4 bud formation per root ([7]; 200 ppm): 0.29 per root

Question: With `O=C(O)c1ccccc1O` [SA, salicylic acid] as the compound, how does the “Average parasitism frequency per root” value ([5]; 2 ppm) read?
Answer: 1.91 per root

Question: And the “S4 bud formation per root” value ([5]; 2 ppm)?
Answer: 0.17 per root

Question: And the “S4 bud formation per root” value ([5]; 20 ppm)?
Answer: 0.38 per root

Question: What about the parasitism frequency ([5]; 200 ppm) of the same compound?
Answer: large

Question: And the “parasitic plant controlling activity” value [9]?
Answer: not so high

Question: And the “Average parasitism frequency per root” value ([6]; 2 ppm)?
Answer: 1.75 per root

Question: What about the “Average parasitism frequency per root” value ([6]; 20 ppm) of the same compound?
Answer: 2.47 per root

Question: And the “S4 bud formation per root” value ([6]; soil irrigation, 2 ppm)?
Answer: 0.06 per root

Question: And the “S4 bud formation per root” value ([6]; soil irrigation, 20 ppm)?
Answer: 0.03 per root

Question: What about the “Average parasitism frequency per root” value ([7]; 20 ppm) of the same compound?
Answer: 2.09 per root

Question: And the “S4 bud formation per root” value ([7]; 20 ppm)?
Answer: 0.38 per root

Question: And the “Average parasitism frequency per root” value ([7]; 200 ppm)?
Answer: 2.17 per root

Question: What about the “S4 bud formation per root” value ([7]; 200 ppm) of the same compound?
Answer: 0.44 per root

Question: What about the “red clover withered (fraction of plants per pot)” value ([8]; first treatment with 200 ppm, two pots) of the same compound?
Answer: 4/6 and 1/5
